According to PMC6199744, “Development of Chemical Proteomics for the Folateome and Analysis of the Kinetoplastid Folateome” (ACS Infectious Diseases, 2018):

Test system: L. major lysate proteins
Assay: Multitargeted bead mixture chemoproteomics, single concentration competition, proteome-wide
Assay type: binding
Conditions: for fold change / fold change relative to vehicle control: vehicle control = 1; for fold change relative to vehicle control: competition with free ligand

SMILES: Nc1nc2cccc(-c3ccccc3)c2n1Cc1ccc(Cl)c(Cl)c1 [compound 3]
- fold change vs vehicle control (protein LMJF.22.0730 HY[…], CONSERVED): 1.03
- fold change (protein LMJF.22.1460 I/6 AUTOANTIGEN-LIKE PROTEIN): 1.02
- fold change vs vehicle control (protein LMJF.22.1540 ALANYL-TRNA SYNTHETASE, PUTATIVE): 0.95
- fold change vs vehicle control (protein LMJF.23.0370 […] OXIDASE SUBUNIT 10, PUTATIVE): 1.06
- fold change (protein LMJF.23.0830 NA/H ANTIPORTER-LIKE PROTEIN): 1.19
- fold change (protein LMJF.23.1020 HY[…], UNKNOWN FUNCTION): 0.96
- fold change (protein LMJF.23.1220 T-COMPLEX PROTEIN 1, GAMMA SUBUNIT, PUTATIVE): 1.01
- fold change vs vehicle control (protein LMJF.24.0140 ANKYRIN/TPR REPEAT PROTEIN): 0.99
- fold change (protein LMJF.24.0280 DYNEIN INTERMEDIATE-CHAIN-LIKE PROTEIN): 0.96
- fold change (protein LMJF.24.0770 MALIC ENZYME, PUTATIVE): 0.99
- fold change relative to vehicle control (protein LMJF.24.1510 IGE-DEPENDENT HISTAMINE-RELEASING FACTOR, PUTATIVE): 1.23
- fold change vs vehicle control (protein LMJF.24.1630, SUCCINATE DEHYDROGENASE FLAVOPROTEIN, PUTATIVE): 0.9
- fold change vs vehicle control (protein LMJF.24.1840 LYSOPHOSPHOLIPASE, PUTATIVE): 1.09
- fold change relative to vehicle control (protein LMJF.24.2060 TRANSKETOLASE): 1.1
- fold change (protein LMJF.24.2250 FATTY-ACID DESATURASE, PUTATIVE): 0.99
- fold change vs vehicle control (protein LMJF.25.0120 ELECTRON TRANSFER FLAVOPROTEIN, PUTATIVE): 0.93
- fold change vs vehicle control (protein LMJF.25.0260 DYNEIN LIGHT CHAIN 1, CYTOPLASMIC, PUTATIVE): 1.01
- fold change relative to vehicle control (protein LMJF.25.0910 C[…]): 1.18
- fold change vs vehicle control (protein LMJF.25.1180, ATPASE BETA SUBUNIT, PUTATIVE): 1.09
- fold change (protein LMJF.25.1610 HY[…], CONSERVED): 0.9
- fold change (protein LMJF.25.1620 HY[…], CONSERVED): 1.16
- fold change vs vehicle control (protein LMJF.26.1240 HEAT SHOCK PROTEIN 70-RELATED PROTEIN): 0.94
- fold change vs vehicle control (protein LMJF.26.1710 […] OXIDASE SUBUNIT V, PUTATIVE): 1.08
- fold change vs vehicle control (protein LMJF.26.1960 HY[…], CONSERVED): 0.96
- fold change vs vehicle control (protein LMJF.26.2000 HY[…], CONSERVED): 1.09
- fold change vs vehicle control (protein LMJF.27.0420 RIBOKINASE, PUTATIVE): 1.13
- fold change vs vehicle control (protein LMJF.27.1060 CYSTEINE DESULFURASE, PUTATIVE): 1.05
- fold change (protein LMJF.27.1310 ARGINYL-TRNA SYNTHETASE, PUTATIVE): 0.9
- fold change vs vehicle control (protein LMJF.27.2400 HEAT SHOCK PROTEIN DNAJ, PUTATIVE): 0.99
- fold change vs vehicle control (protein LMJF.28.0110 […] 3 SUBUNIT, PUTATIVE): 0.99
- fold change vs vehicle control (protein LMJF.28.0930 HY[…], CONSERVED): 1.07
- fold change vs vehicle control (protein LMJF.28.0950 HY[…], CONSERVED): 1.01
- fold change vs vehicle control (protein LMJF.28.0980 P27 PROTEIN, PUTATIVE): 1.09
- fold change vs vehicle control (protein LMJF.28.1950 X-PRO, DIPEPTIDYL-PEPTIDASE,SERINE PEPTIDASE, CLAN SC, FAMILY S15, PUTATIVE): 1.06
- fold change relative to vehicle control (protein LMJF.28.2770 HEAT-SHOCK PROTEIN HSP70, PUTATIVE): 0.99
- fold change (protein LMJF.29.0060 TRYPTOPHANYL-TRNA SYNTHETASE, PUTATIVE): 1.05
- fold change (protein LMJF.29.0820 CYSTEINE PEPTIDASE C (CPC)): 0.91
- fold change relative to vehicle control (protein LMJF.29.0850 HIGH MOBILITY GROUP PROTEIN HOMOLOG TDP-1, PUTATIVE): 1.27
- fold change vs vehicle control (protein LMJF.29.1160 TRYPAREDOXIN): 0.99
- fold change (protein LMJF.29.1760 PAR[…] PROTEIN 1D, PUTATIVE): 0.75
- fold change vs vehicle control (protein LMJF.29.1780 D[…] PROTEIN, PUTATIVE): 1.05
- fold change vs vehicle control (protein LMJF.29.2240 AMINOPEPTIDASE, PUTATIVE): 1.03
- fold change (protein LMJF.29.2310 ENOYL-COA HYDRATASE/ISOMERASE-LIKE PROTEIN): 0.98
- fold change (protein LMJF.29.2860 40S RIBOSOMAL PROTEIN S19-LIKE PROTEIN): 1.34
- fold change vs vehicle control (protein LMJF.30.0850 SURFACE PROTEIN AMASTIN, PUTATIVE): 1.12
- fold change (protein LMJF.30.1250 PYRIDOXAL KINASE, PUTATIVE): 0.82
- fold change (protein LMJF.30.1940 SUCCINYL-COA:3-KETOACID-COENZYME A TRANSFERASE- LIKE PROTEIN): 1.02
- fold change vs vehicle control (protein LMJF.30.3190 3-HYDROXY-3-METHYLGLUTARYL-COA REDUCTASE): 0.77
- fold change vs vehicle control (protein LMJF.30.3520 S-ADENOSYL[…]): 1.03
- fold change vs vehicle control (protein LMJF.31.0440 CYTOSKELETON-[…] CAP5 5, PUTATIVE): 0.97
- fold change (protein LMJF.31.1130 N-ACYL-L-AMINO ACID AMIDOHYDROLASE, PUTATIVE): 0.9
- fold change vs vehicle control (protein LMJF.31.1640 THIOLASE PROTEIN-LIKE PROTEIN): 1.31
- fold change (protein LMJF.31.1800 AMINO ACID PERMEASE): 0.96
- fold change (protein LMJF.31.2250 3,2-TRANS-ENOYL-COA ISOMERASE, MIT[…], PUTATIVE): 1
- fold change vs vehicle control (protein LMJF.31.2790 ADP-RI[…], PUTATIVE): 1.03
- fold change (protein LMJF.31.3130 […]-COA CARBOXYLASE BIOTINYLATED […]-LIKE PROTEIN): 0.99
- fold change (protein LMJF.32.0010 HY[…], CONSERVED): 0.78
- fold change vs vehicle control (protein LMJF.32.0400 ATP-DEPENDENT RNA HELICASE, PUTATIVE): 1.02
- fold change vs vehicle control (protein LMJF.32.0520 PROFILIN, PUTATIVE): 1.17
- fold change (protein LMJF.32.1000 […]-COMPLEX PROTEIN, PUTATIVE): 0.92
- fold change vs vehicle control (protein LMJF.32.3010 HY[…], CONSERVED,LEUCINE-RICH REPEAT PROTEIN, PUTATIVE): 1.47
- fold change vs vehicle control (protein LMJF.32.3870 MYOSIN XXI): 0.97
- fold change vs vehicle control (protein LMJF.33.0890, HY[…], CONSERVED): 1.03
- fold change vs vehicle control (protein LMJF.33.1070 HY[…], UNKNOWN FUNCTION): 1.02
- fold change (protein LMJF.33.1330 CYSTEINE CONJUGATE BETA-LYASE, AMINOTRANSFERASE- LIKE PROTEIN): 1.06
- fold change (protein LMJF.33.1610 PEPTIDASE M20/M25/M40, PUTATIVE): 0.91
- fold change relative to vehicle control (protein LMJF.33.1630 CYCLOPHILIN 4, PUTATIVE): 0.93
- fold change vs vehicle control (protein LMJF.33.2300 UDP-GLC 4'-EPIMERASE, PUTATIVE): 0.98
- fold change vs vehicle control (protein LMJF.33.2390 HEAT SHOCK PROTEIN, PUTATIVE): 0.99
- fold change (protein LMJF.33.2410 HY[…], CONSERVED): 1.06
- fold change (protein LMJF.33.3150 40S RIBOSOMAL PROTEIN S13, PUTATIVE): 1.18
- fold change (protein LMJF.34.3500 RUVB-LIKE 1 DNA HELICASE, PUTATIVE): 1.19
- fold change (protein LMJF.34.3670 VACUOLAR ATP SYNTHASE CATALYTIC SUBUNIT A, PUTATIVE): 0.9
- fold change (protein LMJF.34.3740 SERINE PALMITOYLTRANSFERASE-LIKE PROTEIN): 0.95
- fold change (protein LMJF.34.4120 HY[…], CONSERVED): 0.82
- fold change vs vehicle control (protein LMJF.34.4370 20S […] 7 SUBUNIT, (PUTATIVE)): 1.2
- fold change (protein LMJF.35.0370 ATP-DEPENDENT DEAD-BOX RNA HELICASE, PUTATIVE): 1.01
- fold change vs vehicle control (protein LMJF.35.1380, MIT[…], BETA SUBUNIT, PUTATIVE): 1.16
- fold change vs vehicle control (protein LMJF.35.1410 THREONYL-TRNA SYNTHETASE, PUTATIVE): 1.01
- fold change vs vehicle control (protein LMJF.35.1720 CYCLOPHILIN 14, PUTATIVE): 1.09
- fold change (protein LMJF.35.2500 HY[…], CONSERVED): 1.26
- fold change (protein LMJF.35.2730 ACYL-COA DEHYDROGENASE, PUTATIVE): 1.14
- fold change relative to vehicle control (protein LMJF.35.3010 […],TRYPANOTHIONE-DEPENDENT […]): 0.92
- fold change vs vehicle control (protein LMJF.35.3100 ATP-DEPENDENT RNA HELICASE, PUTATIVE): 1.01
- fold change vs vehicle control (protein LMJF.35.3340 6-phosphogluconate dehydrogenase): 1.11
- fold change (protein LMJF.35.3700 GIM5A PROTEIN, PUTATIVE,[…] PROTEIN): 0.85
- fold change vs vehicle control (protein LMJF.35.3840, […] 2 SUBUNIT, PUTATIVE): 0.92
- fold change vs vehicle control (protein LMJF.35.3860 T-COMPLEX PROTEIN 1, ETA SUBUNIT, PUTATIVE): 1
- fold change (protein LMJF.35.4550 HY[…], CONSERVED): 1.56
- fold change (protein LMJF.35.4770 CYCLOPHILIN 40): 0.89
- fold change (protein LMJF.35.4850 […] 1 SUBUNIT, PUTATIVE): 0.85
- fold change (protein LMJF.35.4860 HY[…], CONSERVED): 0.98
- fold change relative to vehicle control (protein LMJF.35.5330 ISOPENTENYL-D[…]-ISOMERASE, PUTATIVE,ISOMERASE, PUTATIVE): 1.32
- fold change vs vehicle control (protein LMJF.36.0180 […] 2): 1.05
- fold change vs vehicle control (protein LMJF.36.0620 HY[…], CONSERVED): 1.06
- fold change vs vehicle control (protein LMJF.36.0990 40S RIBOSOMAL PROTEIN S10, PUTATIVE): 1.12
- fold change vs vehicle control (protein LMJF.36.2020 CHAPERONIN HSP60, MIT[…]): 0.88
- fold change vs vehicle control (protein LMJF.36.3460 HY[…], CONSERVED): 1.04
- fold change (protein LMJF.36.3760 60S RIBOSOMAL PROTEIN L10A, PUTATIVE): 1.19
- fold change vs vehicle control (protein LMJF.36.3840 GLYCYL TRNA SYNTHETASE, PUTATIVE): 0.95
- fold change vs vehicle control (protein LMJF.36.4170 OXIDOREDUCTASE, PUTATIVE): 0.93
- fold change vs vehicle control (protein LMJF.36.5010 40S RIBOSOMAL PROTEIN SA, PUTATIVE): 1.04
- fold change vs vehicle control (protein LMJF.36.5620 ISOLEUCYL-TRNA SYNTHETASE, PUTATIVE): 0.99
- fold change vs vehicle control (protein LMJF.36.6430 PROTEIN TRANSPORT PROTEIN SEC23-LIKE PROTEIN): 1.04
- fold change (protein LMJF.36.6760 HY[…], CONSERVED): 0.97
- fold change vs vehicle control (protein LMJF.36.6910 T-COMPLEX PROTEIN 1, THETA SUBUNIT, PUTATIVE): 1
- fold change vs vehicle control (protein LMJF.36.6940 disulfide isomerase PDI): 1.23
- fold change vs vehicle control (protein LMJF.[…] […] EXOPOLYPHOSPHATASE, PUTATIVE): 0.81
